Literature values, collected in patent US8691283B2, “Standardized bee venom preparation” (priority 2000, dated 2014).

Tested on: hypophyseal-adrenal system
Conditions: melittin stimulates the hypophyseal-adrenal system and produces cortisone

For CC[C@H](C)[C@H](NC(=O)CN)C(=O)NCC(=O)N[C@@H](C)C(=O)N[C@H](C(=O)N[C@@H](CC(C)C)C(=O)N[C@@H](CCCCN)C(=O)N[C@H](C(=O)N[C@@H](CC(C)C)C(=O)N[C@H](C(=O)N[C@H](C(=O)NCC(=O)N[C@@H](CC(C)C)C(=O)N1CCC[C@H]1C(=O)N[C@@H](C)C(=O)N[C@@H](CC(C)C)C(=O)N[C@H](C(=O)N[C@@H](CO)C(=O)N[C@@H](Cc1c[nH]c2ccccc12)C(=O)N[C@H](C(=O)N[C@@H](CCCCN)C(=O)N[C@@H](CCCNC(=N)N)C(=O)N[C@@H](CCCCN)C(=O)N[C@@H](CCCNC(=N)N)C(=O)N[C@@H](CCC(N)=O)C(=O)N[C@@H](CCC(N)=O)C(N)=O)[C@@H](C)CC)[C@@H](C)CC)[C@@H](C)O)[C@@H](C)O)C(C)C)C(C)C [melittin, Melittin], the “potency relative to hydrocortisone” value is listed as 100 times.
